Legend:
Type in all cases: cell-based, human
[1] = test system: BxPC3 pancreatic carcinoma cells; experiment: MTT cytotoxicity test, BxPC3; conditions: for IC50: BxPC3, 72 h, MTT, ± S.D.; for times more effective than cisplatin: BxPC3 cells
Experimental: (§1) The cytotoxic activity of the complexes and of the uncoordinated ligands was evaluated by the MTT test on a panel of human tumor cell lines containing examples of pancreatic (BxPC3), colorectal (HCT-15), breast (MCF-7), cervical (A431), and lung (A549) cancers as well as of melanoma (A375). For comparison purposes, the cytotoxicity of cisplatin was evaluated under the same experimental conditions.
(§2) Cisplatin was dissolved in 0.9% NaCl solution.
(§3) Human breast (MCF-7), colon (HCT-15), lung (A549) and pancreatic (BxPC3) carcinoma cell lines together with melanoma (A375) cells were obtained from American Type Culture Collection (ATCC, Rockville, MD). The human ovarian cancer cell line 2008 and its cisplatin resistant variant, C13*, were kindly provided by Prof. G. Marverti (Department of Biomedical Science of Modena University, Italy). Human cervical carcinoma (A431) cells were kindly provided by Prof. F. Zunino (Division of Experimental Oncology B, Istituto Nazionale dei Tumori, Milan, Italy). Cell lines were maintained in the logarithmic phase at 37 °C in a 5% carbon dioxide atmosphere using the following culture media containing 10% fetal calf serum (Euroclone, Milan, Italy), antibiotics (50 units/mL penicillin and 50 μg/mL streptomycin) and 2 mM L-glutamine: (i) RPMI-1640 medium (Euroclone) for 2008, C13*, MCF-7, HCT-15, A431 and BxPC3 cells, (ii) F-12 HAM’S (Sigma Chemical Co.) for A549 cells, iii) DMEM (Sigma Chemical Co.) for A375 cells.
(§4) The growth inhibitory effect toward tumor cells was evaluated by means of the MTT assay. Briefly, (3–8) × 10^3 cells/well, dependent upon the growth characteristics of the cell line, were seeded in 96-well microplates in growth medium (100 μL). After 24 h, the medium was removed and replaced with fresh medium containing the compound to be studied at the appropriate concentration. Triplicate cultures were established for each treatment. After 24, 48, or 72 h, each well was treated with 10 μL of a 5 mg/mL MTT saline solution and, after 5 h of incubation, 100 μL of a sodium dodecylsulfate (SDS) solution in 0.01 M HCl was added. After an overnight incubation, cell growth inhibition was detected by measuring the absorbance of each well at 570 nm using a Bio-Rad 680 microplate reader. The mean absorbance for each drug dose was expressed as a percentage of the control, untreated well absorbance and plotted vs drug concentration. The IC50 values, the drug concentrations that decrease the mean absorbance at 570 nm to 50% of that of untreated control wells, were calculated from the dose–response curves with the four-parameter logistic model (4PL). The final value is the mean ± S.D. of at least three independent experiments performed in triplicate.

[2] = test system: HCT-15 colon carcinoma cells; experiment: MTT cytotoxicity test, HCT-15; conditions: for IC50: HCT-15, 72 h, MTT, ± S.D.; for times more effective than cisplatin: HCT-15 cells
Experimental: as §1, §2, §3, §4

[3] = test system: A431 cervical carcinoma cells; experiment: MTT cytotoxicity test, A431; conditions: A431, 72 h, ± S.D.
Experimental: as §1, §2, §3, §4

[4] = test system: A375 melanoma cells; experiment: MTT cytotoxicity test, A375; conditions: A375, 72 h, ± S.D.
Experimental: as §1, §2, §3, §4

[5] = test system: C13* cisplatin-resistant ovarian cancer cells; experiment: MTT cytotoxicity test, cisplatin-resistant C13*; conditions: for IC50: C13* cisplatin-resistant, 72 h, MTT, ± S.D.; for RF (resistance factor): IC50 resistant (C13*) / parent line (2008)
Experimental: The cytotoxic properties of the complexes were also evaluated in a pair of tumor cell lines suitably selected for their sensitivity and resistance to cisplatin (adenocarcinoma cells 2008/C13^*). Cross-resistance profiles were evaluated by means of the resistance factor (RF), defined as the ratio between IC50 values calculated for the resistant cells and those obtained with the sensitive ones (Table 2). The phenomenon of cisplatin resistance is multifactorial in nature.
as §2, §3, §4

[6] = test system: nuclear DNA of A375 cells; experiment: Nuclear DNA platination (GF-AAS); conditions: A375, 5 μM, 24 h
Experimental: It is well known that the main cellular target of platinum complexes is the DNA, and platination of nuclear DNA is a critical step in triggering the death of cancer cells by platinum-based drugs. On this basis, the amount of platinum bound to nuclear DNA was also assessed in A375 cells treated with the tested Pt(IV) complexes. Cells were treated for 24 h with 5 μM of the tested complexes, the nuclear DNA was isolated and the amount of Pt in each sample was determined by means of GF-AAS analysis. The results expressed as pg Pt/ng DNA are depicted in Fig. 7. […] In particular, 1P led to a roughly 60-fold higher DNA platination level with respect to cisplatin.
A375 cells (3 × 10^6) were seeded in 10 cm Petri dishes in 10 mL of culture medium. Subsequently, cells were treated with the tested complexes (5 μM) for 24 h. The DNA was extracted and purified by a commercial spin column quantification kit (Qiagen DNeasy Blood and Tissue Kit). Only highly purified samples (A260/A230 ≅ 1.8 and […]) were included for analysis to avoid any artifacts. The samples were completely dried and re-dissolved in 200 μL of Milli-Q water (18.2 MΩ) for at least 20 min at 65 °C in a shaking thermo-mixer, mineralized and analyzed for total Pt content by GF-AAS as described above.

[7] = test system: A375 cells; experiment: ROS production (CM-H2DCFDA probe); conditions: A375, 12.5 μM, compared with antimycin positive control
Experimental: ROS are products of normal cell metabolism but their levels can be increased upon exposure to toxic agents or interference with the cellular redox network. […] Consequently, cellular ROS levels upon treatment with equal doses (12.5 μM) of the different platinum complexes were monitored in A375 cancer cells by using the peroxide-sensitive fluorescent probe CM-H2DCFDA (5-(and-6)-chloromethyl-2′,7′-dichlorodihydrofluorescein diacetate, acetyl ester). Antimycin, a classical inhibitor of the mitochondrial respiratory chain at the level of complex III, was used as a positive control.
Figure 8 ROS production in A375 cells. Cells were preincubated in PBS/10 mM glucose medium for 20 min at 37 °C in the presence of 10 μM CM-DCFDA and then treated with equimolar doses (12.5 μM) of indole propionic acid Pt(IV) derivatives (panel A) or indole acetic acid Pt(IV) derivatives (panel B). The fluorescence of DCF was measured.
The production of ROS was measured in A375 cells (10^4 per well) grown for 24 h in 96-well plates in DMEM medium without phenol red (Sigma Chemical Co.). Cells were then washed with PBS and loaded with 10 μM 5-(and-6)-chloromethyl-2′,7′-dichlorodihydrofluorescein diacetate, acetyl ester (CM–H2DCFDA) (Molecular Probes-Invitrogen) for 25 min in the dark. Afterwards, cells were washed with PBS and incubated with increasing concentrations of the tested complexes. The fluorescence increase was estimated with a plate reader (Fluoroskan Ascent FL, Labsystem, Finland) at 485 (excitation) and 527 nm (emission). Antimycin (3 μM, Sigma Chemical Co.), a potent inhibitor of Complex III in the electron transport chain, was used as positive control.

Compound	IC50 [1] [µM]	times more effective than cisplatin [1]	IC50 [2] [µM]	times more effective than cisplatin [2]	IC50 [3] [µM]	IC50 [4] [µM]	IC50 [5] [µM]	RF (resistance factor) [5]	DNA platination (in words) [6]	ROS production (in words) [7]	DNA platination level, fold higher than cisplatin ([6]; GF-AAS)
[NH2][Pt]([NH2])([OH])([Cl])([Cl])[O]C(=O)Cc1c[nH]c2ccccc12 [Complex 1A]	2.64 ± 0.97	four times	9 ± 3.13	about two times	2.1 ± 1.04	1.31 ± 0.82	2.51 ± 1.5	0.9	most effective platination of cellular DNA	–	–
[NH2][Pt]([NH2])([Cl])([Cl])([O]C(=O)CCC(=O)O)[O]C(=O)Cc1c[nH]c2ccccc12 [Complex 4A]	> 50	–	> 50	–	3.94 ± 0.57	48.5 ± 1.48	> 50	–	lowest DNA platination capability	did not alter the cellular ROS concentration	–
[NH2][Pt]([NH2])([OH])([Cl])([Cl])[O]C(=O)CCc1c[nH]c2ccccc12 [Complex 1P, cis,cis,trans-[Pt(NH3)2Cl2(IPA)(OH)]]	2.26 ± 0.99	four times	3.66 ± 0.91	about two times	1.62 ± 0.34	0.76 ± 0.02	1.14 ± 0.5	0.8	highest degree of DNA platination	superior to that induced by antimycin	roughly 60
CC(=O)[O][Pt]([NH2])([NH2])([Cl])([Cl])[O]C(=O)Cc1c[nH]c2ccccc12 [Complex 5A]	44.4 ± 6.19	–	44.75 ± 0.07	–	3.07 ± 0.31	26.9 ± 4.04	46.6 ± 3.41	1.1	lowest DNA platination capability	did not alter the cellular ROS concentration	–
[NH2][Pt]([NH2])([Cl])([Cl])([O]C(=O)Cc1c[nH]c2ccccc12)[O]C(=O)c1ccccc1 [Complex 3A]	2.56 ± 1.07	–	3.67 ± 1.31	–	6.31 ± 0.94	3.53 ± 0.6	6.52 ± 1.96	0.7	most effective platination of cellular DNA	–	–

From PMC4941645, “Oxidative Stress Induced by Pt(IV) Pro-drugs Based on the Cisplatin Scaffold and Indole Carboxylic Acids in Axial Position” (Scientific Reports, 2016)
